Q: Which melting point does the source give for COc1ncccc1Nc1c(NC(NC(=O)c2cccc(C)c2)C(C)(C)C)c(=O)c1=O (stereo not shown) [Example 81, N-[1-({2-[(2-Methoxypyridin-3-yl)amino]3,4-dioxo-1-cyclobuten-1-yl}amino)-2,2-dimethylpropyl]-3-methylbenzamide] here?
A: 224 to 226 °C

Q: For CC(C)(C)C(NC(=O)c1cc(Cl)cc(Cl)c1)Nc1c(Nc2cncc(C(F)(F)F)c2)c(=O)c1=O (stereo not shown) [Example 53, 3,5-Dichloro-N-{1-[(3,4-dioxo-2-{[5-(trifluoromethyl)pyridin-3-yl]amino}-1-cyclobuten-1-yl)amino]-2,2-dimethylpropyl}benzamide], which melting point is on record?
A: 233 to 234 °C

Q: Which melting point does the source give for CC(C)(C)C(NC(=O)c1cc(F)cc(F)c1)Nc1c(Nc2cccnc2Cl)c(=O)c1=O (single isomer, unassigned; (+)) [Example 110, (+) N-(1-{[3,4-Dioxo-2-(2-chloro3-pyridinylamino)-1-cyclobuten-1-yl]amino}-2,2-dimethylpropyl)-3,5-difluorobenzamide] here?
A: 215 to 216 °C

Q: Which melting point does the source give for COc1ncccc1Nc1c(NC(NC(=O)c2cccc(C)c2)C(C)(C)Cc2ccccc2)c(=O)c1=O (stereo not shown) [Example 83, N-[1-({2-[(2-Methoxypyridin-3-yl)amino]-3,4-dioxo-1-cyclobuten-1-yl}amino)-2,2-dimethyl-3-phenylpropyl]-3-methylbenzamide] here?
A: 233 to 235 °C
